From US4375542A, “Kijanimicin antibiotics and derivatives thereof” (Schering Corporation, priority 1980, dated 1983)

What was measured:
[1] = test system: Plasmodium berghei; assay: antimalarial activity in infected CF1 mice; format: in vivo, Plasmodium berghei; CF1 mice; conditions: therapy commenced one day after infection
[2] = room temperature at pH 2-3
[3] = acute toxicity (LD50) and therapeutic index; format: in vivo
[4] = anti-inflammatory activity, art recognized test procedures
[5] = test system: Peptostreptococcus; assay: in vitro activity against anaerobic bacteria: Peptostreptococcus; format: cell-based
Description: (§1) Kijanimicin is also active against strains of anaerobic bacteria other than P. acnes. For example, when tested in vitro, the antibiotic was active against strains of Peptococcus species, Peptostreptococcus and E. lentum.

[6] = test system: P-388 leukemia; assay: in vivo anti-tumor test, P-388 leukemia in mice (standard National Cancer Institute test)
Protocol: Anti-tumor activity was determined by the standard National Cancer Institute test which was published in Cancer Chemothr. Rep. 3:1-103 1972.
In the test 10^6 cells per mouse of P-388 leukemia (bleomycin sensitive) is administered intraperitoneally on day 1. The test compound is serially diluted (1/10, 1/100, etc.) and each dilution is administered to a mouse from day 1 to day 9. Animals dying on or before day 5 are listed as toxic deaths. Controls are run using bleomycin and olivomycin A. The results are calculated by the formula in which MST=medium survival time in days;
MST ^T /C=MST-T/MST-Control×100.

[7] = test system: Peptococcus species; assay: in vitro activity against anaerobic bacteria: Peptococcus species; format: cell-based
Description: as §1

[8] = test system: E. lentum; assay: in vitro activity against anaerobic bacteria: E. lentum; format: cell-based
Description: as §1

For `COC(=O)N[C@H]1[C@@H](C)O[C@@H](O[C@H]2C/C=C(\C)[C@@H]3C=C[C@@H]4[C@@H](O[C@H]5C[C@@H](O[C@H]6CC(O[C@H]7C[C@H](O)[C@@H](O)[C@H](C)O7)C(O[C@@H]7C[C@@H](O)[C@@H](OC)[C@H](C)O7)[C@H](C)O6)[C@@H](O)[C@H](C)O5)[C@@H](C)C[C@H](C)[C@H]4[C@]3(C)/C(O)=C3\C(=O)O[C@]4(C[C@@H](C)C(CO)=C[C@H]4/C=C/2C)C3=O)C[C@]1(C)[N+](=O)[O-]` (some centres unmarked) [Kijanimicin], the “antiparasitic activity, Plasmodium berghei” value [1] was “exhibits antiparasitic activity”, the loss of activity [2] was “loses activity rapidly” and the “oral LD50” value ([3]; oral) was “greater than 1000 mg/kg”. The “therapeutic index (LD50 / PD50), oral” value ([3]; oral) was “about 10”, the “subcutaneous LD50” value ([3]; subcutaneous) was “greater than 1000 mg/kg” and the “therapeutic index (LD50 / PD50), subcutaneous” value ([3]; subcutaneous) was “about 10”. The anti-inflammatory effect [4] was “exhibits an anti-inflammatory effect”, the “in vitro activity against Peptostreptococcus” value [5] was “active” and the “anti-tumor activity against P-388 leukemia” value [6] was “exhibits anti-tumor activity”. The “in vitro activity against Peptococcus species” value [7] was “active” and the “in vitro activity against E. lentum” value [8] was “active”.
